Experiment: relative permittivity at various frequencies (dimensionless); xn = mol fraction of the nth substance listed
Conditions: 101.33 kPa, Liquid, Frequency=3 MHz, OH-301

CCCCOCCO [2-butoxyethan-1-ol] + O=[N+]([O-])c1ccccc1
relative permittivity
Conditions	293.15 K	298.15 K	303.15 K	308.15 K	313.15 K
x2 = 0	9.78	9.35	8.88	8.39	7.91
x2 = 0.05	12.73	11.87	11.04	10.26	9.54
x2 = 0.0999	15.28	14.32	13.35	12.37	11.45
x2 = 0.2003	19.6	18.58	17.59	16.63	15.76
x2 = 0.3	23.44	22.39	21.39	20.42	19.59
x2 = 0.4	27	25.85	24.78	23.77	22.92
x2 = 0.5	30.19	28.96	27.82	26.74	25.84
x2 = 0.6	32.88	31.6	30.44	29.34	28.49
x2 = 0.7	34.91	33.59	32.5	31.36	30.53
x2 = 0.7493	35.71	34.34	33.12	32.06	31.22
x2 = 0.8	36.29	34.85	33.69	32.47	31.69
x2 = 0.8506	36.65	35.21	33.91	32.79	31.92
x2 = 0.9	36.77	35.26	33.96	32.85	32.04
x2 = 0.9499	36.52	35.09	33.86	32.84	32.1

CCOCCO [2-ethoxyethan-1-ol] + O=[N+]([O-])c1ccccc1
relative permittivity
Conditions	293.15 K	298.15 K	303.15 K	308.15 K	313.15 K
x2 = 0	14.25	14.03	13.76	13.44	13.07
x2 = 0.0499	16.23	15.75	15.23	14.71	14.17
x2 = 0.0997	18.22	17.59	16.95	16.29	15.64
x2 = 0.2	21.92	21.16	20.41	19.67	18.98
x2 = 0.3002	25.24	24.4	23.54	22.77	22
x2 = 0.4001	28.2	27.24	26.32	25.46	24.66
x2 = 0.5	30.85	29.8	28.81	27.95	27.13
x2 = 0.6003	33.21	32.07	31.07	30.15	29.38
x2 = 0.7	34.94	33.75	32.71	31.81	31.04
x2 = 0.7491	35.66	34.39	33.29	32.33	31.52
x2 = 0.7996	36.11	34.77	33.6	32.6	31.76
x2 = 0.8504	36.37	35	33.73	32.69	31.81
x2 = 0.9001	36.43	34.99	33.69	32.64	31.79
x2 = 0.9456	36.26	34.87	33.66	32.67	31.9

CCCOCCO [2-propoxyethanol] + O=[N+]([O-])c1ccccc1
relative permittivity
Conditions	293.15 K	298.15 K	303.15 K	308.15 K	313.15 K
x2 = 0	11.76	11.5	11.19	10.91	10.62
x2 = 0.0497	14.29	13.73	13.13	12.57	12.02
x2 = 0.1008	16.55	15.87	15.15	14.52	13.88
x2 = 0.2	20.53	19.71	18.92	18.2	17.54
x2 = 0.3004	24.06	23.14	22.27	21.5	20.81
x2 = 0.4	27.18	26.2	25.26	24.45	23.7
x2 = 0.5	30.06	28.98	27.97	27.11	26.32
x2 = 0.6008	32.56	31.43	30.36	29.47	28.73
x2 = 0.6997	34.55	33.33	32.27	31.35	30.61
x2 = 0.7489	35.32	34.05	32.96	32.01	31.26
x2 = 0.8	35.94	34.57	33.43	32.48	31.69
x2 = 0.8499	36.33	34.95	33.75	32.73	31.91
x2 = 0.9004	36.49	35.1	33.86	32.83	32.03
x2 = 0.9488	36.3	34.95	33.8	32.85	32.14

O=[N+]([O-])c1ccccc1 [nitrobenzene] + COCCO
relative permittivity
Conditions	293.15 K	298.15 K	303.15 K	308.15 K	313.15 K
x1 = 0.0505	19.13	18.51	17.93	17.37	16.82
x1 = 0.1011	20.66	19.96	19.31	18.66	18.05
x1 = 0.2003	23.41	22.63	21.89	21.19	20.56
x1 = 0.3003	25.97	25.12	24.31	23.59	22.96
x1 = 0.4002	28.41	27.45	26.59	25.84	25.16
x1 = 0.4998	30.69	29.62	28.69	27.94	27.22
x1 = 0.5997	32.75	31.57	30.58	29.81	29.09
x1 = 0.7001	34.4	33.23	32.18	31.31	30.59
x1 = 0.752	35.1	33.87	32.8	31.91	31.17
x1 = 0.8004	35.62	34.35	33.24	32.3	31.54
x1 = 0.8491	36.03	34.74	33.57	32.61	31.8
x1 = 0.8974	36.21	34.89	33.72	32.76	32
x1 = 0.9502	36.26	34.94	33.8	32.88	32.2
x1 = 1	35.91	34.78	33.84	33.13	32.66

— the NIST ThermoML archive (doi:10.1016/j.jct.2012.02.011)
